Results published in PubChem BioAssay AID1963856 (Molecular Pharmacology Branch, DTP, NCI, 2024).

Tested on: LG0567-F671-PDC KRAS tumor spheroid viability
Assay: Anticancer human tumor LG0567-F671-PDC patient-derived lung adenocarcinoma cell line growth inhibition [KRAS2]
Conditions: spheroids with HUVEC and MSC; for IC50: curve of first compound; for viability, T/C: stronger effect = lower value
From the text: Multicellular complex tumor spheroid response to RAS pathway inhibitors in combination with a targeted agents in patient-derived cell lines with oncogenic KRAS variants from multiple cancer types
A high-throughput screen of multi-cell type tumor spheroids was designed to identify active combinations of targeted small molecules and KRAS pathway inhibitors. Complex spheroids include a stromal component modeled by human endothelial cells (HUVEC) and fibroblasts modeled by human mesenchymal stem cells (MSCs). The concentration ranges selected for each drug and investigational agent were based upon clinically achievable concentrations if the clinical Cmax of the agent was known.
Compounds. The drugs and investigational agents: BI-3406 (NSC825286), BAY-293 (NSC824723), batoprotafib (TNO155; NSC825523), sotorasib (AMG 510; NSC818433), MRTX1257 (NSC819558), elimusertib (BAY 1895344; NSC800525), molibresib (GSK525762; NSC774829), temuterkib (LY3214996; NSC803410), venetoclax (NSC766270), alisertib (NSC759677), olaparib (NSC753686), talazoparib (NSC767125), erdafitinib (NSC781556), ipatasertib (NSC767898), cabozantinib (NSC761068), nintedanib (NSC756659), abemaciclib (NSC768073), docetaxel (NSC628503), trametinib (NSC758246), and sapanisertib (NSC764658) were obtained from the National Cancer Institute (NCI) Developmental Therapeutics Program Chemical Repository. The FDA-approved anticancer drug set is available from the Developmental Therapeutics Program. […] The stock solutions were prepared in dimethyl sulfoxide (DMSO, Sigma-Aldrich, St. Louis, MO, cat. D2650) at 800-fold the tested concentration and stored at -70 degrees C prior to their use. All drugs and investigational agents were tested over a range starting from a high concentration at or near the clinical Cmax and decreasing in half-log increments. If the clinical Cmax for an agent had not been determined, the highest concentration tested was 10 microM.
Cell Culture. All cells were maintained in an incubator at 37 degrees C and 5% CO2 with 95% humidity. The PDC lines were cultured according to standard operating procedures established by the NCI PDMR (https://pdmr.cancer.gov/sops/default.htm). Briefly, all PDCs were thawed and cultured in Matrigel-coated flasks prepared with a working solution of 1X Ham's F-12 nutrient mix, without supplementation (Invitrogen, Waltham, MA, cat. 11765054), 100 U/mL penicillin-streptomycin (Invitrogen, cat. 15140122), and 2.5% Matrigel (Corning Inc., Corning, NY, cat. 354248) for the first three passages. All PDCs were cultured in complete DMEM/F-12 media containing advanced DMEM/F-12 (Invitrogen, cat. 12634028), 4.9% defined fetal bovine serum, heat inactivated (HyClone Laboratories Inc., Logan, UT, cat. SH30070.03HI), 389 ng/mL hydrocortisone (Sigma-Aldrich, cat. H4001), 9.7 ng/mL human EGF recombinant protein (Invitrogen, cat. PHG0313), 23.4 microg/mL adenine (Sigma-Aldrich, cat. A2786), 97.3 U/mL penicillin-streptomycin (Invitrogen, cat. 15140122), 1.9 mM L-glutamine (Invitrogen, cat. 25030081), and 9.7 microM Y-27632 dihydrochloride (Tocris Bioscience, Bristol, United Kingdom, cat. 1254). The PDCs were cultured in complete DMEM/F12 media without 9.7 microM Y-27632 dihydrochloride for at least two passages prior to the screen. The established cell line HOP-62 was cultured in RPMI 1640 medium, HEPES (Invitrogen, cat. 22400105) with 10% defined fetal bovine serum (HyClone Laboratories Inc., cat. SH30070.03) and 2 mM L-glutamine (Invitrogen, cat. 25030081). The pooled donor HUVEC were cultured in endothelial cell growth medium 2 (PromoCell, Heidelberg, Germany, cat. C-22011) and the hMSC were cultured in mesenchymal stem cell growth medium 2 (PromoCell, cat. C-28009). For all experiments, HUVEC and hMSC were used at passages </=5, while the malignant cell lines were used at passages </=15. […]

[1] = second compound 0.1 µM, first compound 0.01 µM
[2] = second compound 0.1 µM, first compound 0.0316 µM
[3] = second compound 0.1 µM, first compound 0.1 µM
[4] = second compound 0.316 µM, first compound 0.01 µM
[5] = second compound 0.316 µM, first compound 0.0316 µM
[6] = second compound 0.316 µM, first compound 0.1 µM
[7] = second compound 1 µM, first compound 0.01 µM
[8] = second compound 1 µM, first compound 0.0316 µM
[9] = second compound 1 µM, first compound 0.1 µM
[10] = second compound 3.16 µM, first compound 0.01 µM
[11] = second compound 3.16 µM, first compound 0.0316 µM
[12] = second compound 3.16 µM, first compound 0.1 µM
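Further: drug exposure lasted seven days after spheroids formed for three days.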
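Wherever viability, T/C is given: 100% = DMSO vehicle control viability.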

Structure (SMILES): CC(C)n1nc(-c2ccc3oc(N)nc3c2)c2c(N)ncnc21 + COc1cc2nc(C)nc(NC(C)c3cc(N)cc(C(F)(F)F)c3)c2cc1OC1CCOC1
- IC50 (second compound 0.1 µM): 56 nM
- IC50 (second compound 0.316 µM): 15.7 nM
- IC50 (second compound 1 µM): 2.92 nM
- IC50 (second compound 3.16 µM): 0.992 nM
- IC50 (second compound 10 µM): < 0.316 nM
- viability, T/C (second compound 0.1 µM, first compound 0.000316 µM): 76.4%
- viability, T/C (second compound 0.1 µM, first compound 0.001 µM): 73.5%
- viability, T/C (second compound 0.1 µM, first compound 0.00316 µM): 60.4%
- viability, T/C [1]: 60.6%
- viability, T/C [2]: 51.8%
- viability, T/C [3]: 47.5%
- viability, T/C (second compound 0.316 µM, first compound 0.000316 µM): 65.2%
- viability, T/C (second compound 0.316 µM, first compound 0.001 µM): 73.6%
- viability, T/C (second compound 0.316 µM, first compound 0.00316 µM): 57.7%
- viability, T/C [4]: 47.5%
- viability, T/C [5]: 49.8%
- viability, T/C [6]: 34.7%
- viability, T/C (second compound 1 µM, first compound 0.000316 µM): 70.1%
- viability, T/C (second compound 1 µM, first compound 0.001 µM): 59.1%
- viability, T/C (second compound 1 µM, first compound 0.00316 µM): 45.8%
- viability, T/C [7]: 45.2%
- viability, T/C [8]: 28.4%
- viability, T/C [9]: 23.5%
- viability, T/C (second compound 3.16 µM, first compound 0.000316 µM): 59.9%
- viability, T/C (second compound 3.16 µM, first compound 0.001 µM): 49.9%
- viability, T/C (second compound 3.16 µM, first compound 0.00316 µM): 38.4%
- viability, T/C [10]: 32%
- viability, T/C [11]: 20.5%
- viability, T/C [12]: 10.2%
- viability, T/C (second compound 10 µM, first compound 0.000316 µM): 37.7%
- viability, T/C (second compound 10 µM, first compound 0.001 µM): 35.2%
- viability, T/C (second compound 10 µM, first compound 0.00316 µM): 24.8%
- viability, T/C (second compound 10 µM, first compound 0.01 µM): 16.2%
- viability, T/C (second compound 10 µM, first compound 0.0316 µM): 11.5%
- viability, T/C (second compound 10 µM, first compound 0.1 µM): 9.84%

Structure (SMILES): CC(=O)OC12COC1CC(O)C1(C)C(=O)C(O)C3=C(C)C(OC(=O)C(O)C(NC(=O)OC(C)(C)C)c4ccccc4)CC(O)(C(OC(=O)c4ccccc4)C21)C3(C)C (stereo not given) + C=CC(=O)N1CCN(c2nc(OCC3CCCN3C)nc3c2CCN(c2cccc4cccc(C)c24)C3)CC1CC#N
- IC50 (second compound 0.0316 µM): < 10 nM
- IC50 (second compound 0.1 µM): < 10 nM
- IC50 (second compound 0.316 µM): < 10 nM
- IC50 (second compound 1 µM): < 10 nM
- IC50 (second compound 3.16 µM): < 10 nM
- viability, T/C (second compound 0.0316 µM, first compound 0.01 µM): 18.9%
- viability, T/C (second compound 0.0316 µM, first compound 0.0316 µM): 16.2%
- viability, T/C (second compound 0.0316 µM, first compound 0.1 µM): 18.9%
- viability, T/C (second compound 0.0316 µM, first compound 0.316 µM): 21.9%
- viability, T/C (second compound 0.0316 µM, first compound 1 µM): 22.9%
- viability, T/C (second compound 0.0316 µM, first compound 3.16 µM): 19.9%
- viability, T/C [1]: 14.5%
- viability, T/C [2]: 13.2%
- viability, T/C [3]: 16.1%
- viability, T/C (second compound 0.1 µM, first compound 0.316 µM): 16.5%
- viability, T/C (second compound 0.1 µM, first compound 1 µM): 19.4%
- viability, T/C (second compound 0.1 µM, first compound 3.16 µM): 15.8%
- viability, T/C [4]: 15.8%
- viability, T/C [5]: 13.9%
- viability, T/C [6]: 15.7%
- viability, T/C (second compound 0.316 µM, first compound 0.316 µM): 13.8%
- viability, T/C (second compound 0.316 µM, first compound 1 µM): 16.9%
- viability, T/C (second compound 0.316 µM, first compound 3.16 µM): 14.7%
- viability, T/C [7]: 16.6%
- viability, T/C [8]: 15.4%
- viability, T/C [9]: 15.9%
- viability, T/C (second compound 1 µM, first compound 0.316 µM): 15.3%
- viability, T/C (second compound 1 µM, first compound 1 µM): 16.8%
- viability, T/C (second compound 1 µM, first compound 3.16 µM): 14.4%
- viability, T/C [10]: 40.1%
- viability, T/C [11]: 37.1%
- viability, T/C [12]: 25.7%
- viability, T/C (second compound 3.16 µM, first compound 0.316 µM): 36.4%
- viability, T/C (second compound 3.16 µM, first compound 1 µM): 33.6%
- viability, T/C (second compound 3.16 µM, first compound 3.16 µM): 36.6%
